Measured values from US20080305520A9, “Mechanosensitive ion channels and methods of use” (priority 2004, published 2008).
“Also recorded” adds a separate entry of the source.

What was measured:
MscCa = assay: Pressure-clamp cell-attached patch recording of MscCa currents in Xenopus oocytes; type: cell-based; settings: oocyte cell-attached patches; EGTA left out of pipette solution
MscCa in PC3 cells = biological target: T1, MscCa in PC3 cells (Homo sapiens, UniProt P48995); assay: Cell-attached patch-clamp recording of MscCa activity in PC3 cells; type: cell-based
T1 construct: host or cells: PC3 human prostate tumor cells
T1 sequence (P48995 whole entry): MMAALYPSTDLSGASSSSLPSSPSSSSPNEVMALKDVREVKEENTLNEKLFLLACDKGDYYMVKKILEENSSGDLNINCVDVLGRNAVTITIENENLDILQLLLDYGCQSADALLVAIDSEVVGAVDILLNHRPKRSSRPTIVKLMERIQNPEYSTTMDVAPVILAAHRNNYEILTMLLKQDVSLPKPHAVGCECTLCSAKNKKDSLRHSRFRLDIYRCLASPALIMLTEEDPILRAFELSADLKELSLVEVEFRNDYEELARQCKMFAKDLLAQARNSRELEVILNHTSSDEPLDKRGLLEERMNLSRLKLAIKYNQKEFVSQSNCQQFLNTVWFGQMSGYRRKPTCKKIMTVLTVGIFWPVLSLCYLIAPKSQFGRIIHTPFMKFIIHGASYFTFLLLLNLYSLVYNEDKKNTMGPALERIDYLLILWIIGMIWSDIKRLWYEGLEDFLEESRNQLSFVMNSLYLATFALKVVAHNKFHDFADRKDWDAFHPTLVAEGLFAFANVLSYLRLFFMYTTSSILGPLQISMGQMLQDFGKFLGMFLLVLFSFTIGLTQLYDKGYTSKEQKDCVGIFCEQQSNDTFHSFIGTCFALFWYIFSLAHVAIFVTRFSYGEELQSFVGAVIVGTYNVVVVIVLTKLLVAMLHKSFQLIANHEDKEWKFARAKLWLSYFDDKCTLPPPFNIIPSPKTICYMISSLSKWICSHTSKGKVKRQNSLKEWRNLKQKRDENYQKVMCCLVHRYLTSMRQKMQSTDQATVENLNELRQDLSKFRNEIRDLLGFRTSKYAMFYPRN
Method: PC3 cell lines were grown in RPM1 1640 medium with 25 mM Hepes and glutamine, supplemented with 7% fetal calf serum, I mM sodium pyruvate, 4.5 g/L glucose, penicillin G (10,000 U/ml) and streptomycin sulfate (10,000 tg/ml) at 37° C. in a humidified 95% 02-5% C02 atmosphere. For patch-lamp studies, cells were seeded at low density on sterile coverslips placed in 33 mm culture dishes and tested during the next 2 - 5 days. Patch clamp recording was conducted as follows. Standard cell-attached patch-clamp recording was used to record single channel currents. The pipettes were made from thin-walled borosilicate glass (World Precision Instruments, Stevenage, UK) with an outside tip diameter of -2 Wm. Immediately prior to patch clamping, a cover slip was removed from the culture dish, glued with dots of silcone to a 35 mm culture, and placed in a microscope stage holder. Cells were visualized with an IM35 Zeiss microscope with fluorescence and Normaski optics. A pressure-clamp (McBride, D.W., Jr. & Hamill, O. P., PflLigers Archiv. 421, 606-612 (1992)) was used to apply pressure and suction protocols to achieve the initial tight seal and stimulate MS channels. […] This voltage-dependent gating of the open channel is also a characteristic of the prototypical MscCa, native to the frog oocyte (Taglietti et al., J. Physiol., 407, 311 (1988)), identified as being formed by the transient receptor channel protein I (TRPCI). The current-voltage relationship of the prostate MscCa measured with a 100 mM K+, zero Ca^2+in the pipette solution indicates an inwardly rectifying single channel conductance (-70 pS chord conductance at -100 mV and 20 pS at 50 mV) (Fig. • SB) that is essentially identical to that of the oocyte MscCa indicating a common pore structure. […] In the “sustained mode” (SM), the channels remained open for the duration of stimulation (Fig. SC), while in the “transient mode” (TM) the channels closed rapidly (cO.5 s) (FIG. 5C). […]

PC3 cells = assay: PC3 cell migration by time-lapse videomicroscopy; type: cell-based, human; settings: for PC3 cell migration: one hour intervals before, during and after exposure; for reversibility of migration block with washout: up to 1 hour
Method: The effect of the three anti-MscCa agents on PC3 cell migration was tested using time-lapse videomicroscopy to record the trajectory of the migrating prostate tumor cells. Selected video frames were prepared at 15 minute intervals, showing a cluster of 7 PC3 cells as they migrate out from the cluster. […] All three agents blocked cell migration.
(§1) Time-lapse videomicroscopy and Ca 2-imaging were conducted as follows. Cell migration was monitored by time-lapse videomicroscopy using Nomarski optics with an Epifluorescent microscope (TE 200). The time-lapse images were acquired and saved at 5 minute intervals using Metafluor software. Calcium imaging assays were carried out on cells previously loaded with Fura-2 AM (5 tm for 30 minutes). Time-lapse fluorescence images were consecutively acquired at 340 and 380 wavelengths and transmission (DIC) at intervals of I minute using Metafluor. Data analysis was carried out using Metamorph (Version 6. 1) and Excel] 2000. Conversion of pixels to gm based on a calibrated slide to represent the cell trajectories in the field.
(§2) The day before transfection cells were seeded at 50-60% density on sterile coverslips in a 6 well plate in culture medium without antibiotic. Transfection of 100 nM of double stranded siRNA Cy3 labeled per well (Ambion #731 1 and negative control, Ambion, Austin, TX was carried using Lipofectamine 2000 (Invitrogen, Carlsbad, CA) according to the manufacturer's instructions for siRNA transfections. Cells were stored in the incubator after the addition of the complexes and 7% FCS medium without antibiotic was added after the first 6 hours of transfection. The next day the supernatant was removed and normal culture medium replaced. Cells were tested by patch clamp and videomicroscopy during the next 48-72 hours, using the patch clamp and videomicroscopy methods described above in examples 4 and 5. […] The foregoing detailed description and examples have been given for clarity of understanding only. No unnecessary limitations are to be understood therefrom. The invention is not limited to the exact details shown and described, for variations obvious to one skilled in the art will be included within the invention defined by the claims.

[1] = test system: [Ca^2+]i fluctuations in migrating PC3 cells; assay: Fura-2 Ca2+ imaging of [Ca2+]i fluctuations in migrating PC3 cells; type: cell-based, human; settings: for sustained and transient [Ca^2+]i oscillations: same concentrations that blocked/reduced MscCa activity and PC3 cell migration, 9 cells, 3 experiments
Method: Two distinct types of [Ca^2+]i fluctuations were observed; a sustained Ca^2+)1 that increased from the front of the cell to the rear and was maintained for the duration of the locomotion cycle (up to 3 hours) measured from tether formation to tether release; and a fast transient [Ca2+i wave that spread rapidly through out the cell and lasted <1 minute (the time interval between frames) with an average frequency of 6 waves in 30 minutes. Both sustained and transients [Ca2+]i fluctuations were associated with moving cells. All three anti-MscCa agents described above, abolished both forms of [Ca^2+]i oscillations at the same concentrations that blocked/reduced MscCa activity and PC3 cell migration (9 cells, 3 experiments). Again, whereas with Gd and GsmTx4 the block was reversible, there was no recovery after the anti-TRPCI Ab washout.
as §1, §2

[2] = test system: fish epithelial keratocyte; settings: Lee et al., Nature 400 (1999), cited from earlier work
prostate tumor cell = settings: medium containing serum; Cancer Letters 145 (1999); cited from earlier work
prostate tumor cells = settings: cited from earlier work
[3] = test system: Ca^2+-activated K+channel; assay: Delayed outward channel currents after MscCa activation, PC3 cell-attached patch; type: cell-based, human; settings: 50 nM charybdotoxin in the pipette solution; 1 mM external Ca^2+
Method: PC3 cell lines were grown in RPM1 1640 medium with 25 mM Hepes and glutamine, supplemented with 7% fetal calf serum, I mM sodium pyruvate, 4.5 g/L glucose, penicillin G (10,000 U/ml) and streptomycin sulfate (10,000 tg/ml) at 37° C. in a humidified 95% 02-5% C02 atmosphere. For patch-lamp studies, cells were seeded at low density on sterile coverslips placed in 33 mm culture dishes and tested during the next 2 - 5 days. Patch clamp recording was conducted as follows. Standard cell-attached patch-clamp recording was used to record single channel currents. The pipettes were made from thin-walled borosilicate glass (World Precision Instruments, Stevenage, UK) with an outside tip diameter of -2 Wm. Immediately prior to patch clamping, a cover slip was removed from the culture dish, glued with dots of silcone to a 35 mm culture, and placed in a microscope stage holder. Cells were visualized with an IM35 Zeiss microscope with fluorescence and Normaski optics. […] The current-voltage relationship of the prostate MscCa measured with a 100 mM K+, zero Ca^2+in the pipette solution indicates an inwardly rectifying single channel conductance (-70 pS chord conductance at -100 mV and 20 pS at 50 mV) (Fig. • SB) that is essentially identical to that of the oocyte MscCa indicating a common pore structure. […]

With `[Gd+3]` [Gd^3+, gadolinium ion] the “block of native and TRPC1-expressed MscCa” value (MscCa) was “equally effective in blocking”, the MscCa activity (MscCa in PC3 cells; Gd^3+ also included in the pipette-tip solution, 20 out of 20 patches) was “abolished” and the “MscCa patch current (channel block)” value (MscCa in PC3 cells; Gd^3+ in back solution at 5 µM, -3 minutes after tight seal, pressure steps) was “block the channel”. For the same compound, the PC3 cell migration (PC3 cells; Gd^3+) was “blocked”, the “reversibility of migration block with washout” value (PC3 cells) was “reversible” and the “sustained and transient [Ca^2+]i oscillations” value [1] was “abolished”. For the same compound, the “reversibility of block of [Ca^2+]i oscillations after washout” value [1] was “reversible”, the “Ca^2+ transients” value [2] was “abolishes” and the cell migration ([2]; prevents rear detachment) was “inhibiting”. For the same compound, the “prostate tumor cell motility” value (prostate tumor cell) was “enhanced rather than inhibited”.
In the case of `NC1=N[C@H](O)[C@H]2[C@H]3O[C@]4(O)O[C@@H]([C@@H](O)[C@@]2(N1)[C@@H]4O)[C@]3(O)CO` [tetrodotoxin], the invasiveness (prostate tumor cells) is given as “reduce invasiveness”.
In the case of “GCLEFWWKCNPNDDKCCRPKLKCSKLFKLCNFSSG [GsmTx-4]”, the MscCa activity (MscCa in PC3 cells; 3 μM GsmTx-4 in pipette, SM or TM gating mode) is reported as “blocked; also recorded: effective in blocking”, the PC3 cell migration (PC3 cells; GsMTx-4 3 μM) is reported as “blocked” and the “reversibility of migration block with washout” value (PC3 cells) is reported as “reversible”. The “sustained and transient [Ca^2+]i oscillations” value [1] was “abolished” and the “reversibility of block of [Ca^2+]i oscillations after washout” value [1] was “reversible”.
In the case of “charybdotoxin (QFTNVSCTTSKECWSVCQRLHNTSRGKCMNKKCRCYS)”, the “delayed activation of outward channel currents after MscCa inward currents” value [3] is reported as “absent”.
